Results published in US5373089A, “Oxytocin antagonist” (Northwestern University, priority 1993, dated 1994).
Starred links: 1 amine or outer side, 2 acyl side, 3 side chain; linkers in the order of their positions; H or OH if unused. Positions of bridges follow the written chain, without caps; N, C: chain ends. Non-standard residues stand in square brackets, D forms with d. Residues, ends and D or L forms follow the SMILES beside them. X1 = O=C(CC1(S[*:2])CCCCC1)[*:1]

Columns and labels:
HUMAN OXYTOCIN RECEPTOR = target: T1, HUMAN OXYTOCIN RECEPTOR (Homo sapiens, UniProt P30559); test: Oxytocin receptor assay, human myometrial tissue membranes, 3H-OT competition; format: binding
T1 construct: Oxytocin receptors (OTrs) reside on the cell membrane and are present at high concentrations at the end of pregnancy in uterine tissue; from tissue; host or cells: human myometrium from cesarean section patients, sucrose-gradient membrane fraction
T1 sequence (P30559 1-389): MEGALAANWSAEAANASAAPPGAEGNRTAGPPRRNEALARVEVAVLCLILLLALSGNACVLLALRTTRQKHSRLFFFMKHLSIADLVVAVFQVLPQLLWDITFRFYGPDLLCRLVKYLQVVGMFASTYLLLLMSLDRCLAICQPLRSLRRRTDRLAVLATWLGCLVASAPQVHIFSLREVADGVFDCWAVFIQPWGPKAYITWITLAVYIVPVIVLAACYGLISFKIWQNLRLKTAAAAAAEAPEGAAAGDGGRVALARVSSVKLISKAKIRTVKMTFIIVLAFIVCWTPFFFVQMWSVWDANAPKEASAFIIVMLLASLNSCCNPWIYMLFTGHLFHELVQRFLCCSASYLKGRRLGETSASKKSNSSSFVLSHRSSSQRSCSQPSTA
Experimental: Human myometrial tissue was collected from patients at the time of cesarian section after informed consent. The tissue was rinsed in cold buffer, cut into small pieces and frozen at -70° C. until homogenization.
Oxytocin receptors (OTrs) reside on the cell membrane and are present at high concentrations at the end of pregnancy in uterine tissue. Frozen tissue is homogenized in Tris buffer, the homogenate filtered, and the filtrate centrifuged at 1000 g for 15 minutes at 4° C. The supernatant is centrifuged at 40,000 g for 30 minutes and the pellet containing the cell membranes resuspended in 10% sucrose. Density gradient ultracentrifugation is then performed by placing the 10 % sucrose suspension on top of 35% sucrose and centrifuging for 30 minutes in a swing bucket rotor at 105,000 g. The membranes at the interface of the 10%/35% sucrose are removed and resuspended in Tris buffer containing EDTA for 30 minutes. This procedure removes divalent cation and results in dissociation of any endogenously bound OT to the receptor. This mixture is then centrifuged for 15 minutes at 100,000 g and the pellet containing the membrane OTrs resuspended in Tris, PMSF, Mg^++, buffer by sonication.
The binding assay consist of 0.1 ml of 20,000 cmp of tritium labeled OT (New England Nuclear, […]), 0.1 ml of OT antagonist added at increasing concentration, 0.25 ml of buffer and 0.05 ml of membrane (70-150 ug protein). A nonspecific tube has 100× of cold OTA added to it. The incubation is for 30 minutes at 30 ° C. The membrane is pelleted by centrifugation in ultraclear mini tubes (5×41 mm) for 30 minutes at 105,000 g. The resulting pellet containing the bound ^3 H-OT is dissolved in 0.1N NaOH at 45 ° C. for 30 minutes and this mixture is then placed in liquid scintillation counting fluid and counted for dpms in a scintillation counter.
The data is analyzed by nonlinear curve fitting methods using McPherson's EBDA (J Pharmacol Methods 14:213-228, 1985) and Munson and Rodbard's LIGAND (Anal Biochem 107:220-239, 1980) program for saturation and competition analysis for determining Kds and Kis.

ADH = ADH bioassay (alteration in urine output due to ADH); format: in vivo; settings: for ADH Bioassay pA2: in vivo
Experimental: The above compound was also tested for antagonism to vasopressin. Anti-ADH activity can be determined by measuring the alteration in urine output due to ADH in the presence and absence of the antagonist. A suitable ADH-assay is described in Sawyer, et al., Endocrinology, 63:694 (1958). […] The ratio of oxytocin antagonism to ADH antagonism was very high, viz. over 1, 866, as compared with 200 for the compositions disclosed in the parent applications.
The anti-ADH activity is measured by the alteration in urine […] in the presence and absence of the antagonist to determine the specificity of the antagonist. The anti-ADH assay is described in Sawyer, et al., Endocrinology, 63:694 (1958).

pregnant baboon = test: Oxytocin challenge test in tethered pregnant baboon (antagonists-response interval); format: in vivo; settings: for ARI (OTA/ANTI): ratio to ANTAG I
Experimental: The baboon is an excellent animal model because of its physiologic and anatomic similarity to humans (see articles by our laboratory: Am J Obstet Gynecol. 163:1815-1882, 1990; Am J Obstet Gynecol 165:456-560, 1991; Am J Obstet Gynecol 165:1487-1498, 1991; articles by other laboratories: Endocrine Reviews 11:124-150, 1990; 11:151-176, 1990). Pregnant tethered baboons were studied between 130 to 145 days of pregnancy Delivery=day 184). The oxytocin antagonists were administered as a single bolus injection of 1 mg intra-arterially followed 1 minute later by the infusion of oxytocin. […] This oxytocin antagonist was not produced in our laboratory and is not an oxytocin analog.

Compound | Kd (HUMAN OXYTOCIN RECEPTOR) | ADH Bioassay pA2 (ADH) | ARI (antagonists-response interval) (pregnant baboon; 1 mg single bolus intra-arterially, then oxytocin infusion, pregnant baboon day 130-145) | time for which the response to oxytocin was blocked (pregnant baboon; one mg, pregnant baboon) | ARI (OTA/ANTI) (pregnant baboon) | ARI (OTA/ANTI) (pregnant baboon; listed as ANTAG III) | ARI (OTA/ANTI) (pregnant baboon; listed as compound D) | activity as a vasopressin antagonist (ADH; result in words)
CC[C@H](C)[C@@H]1NC(=O)[C@H](Cc2ccccc2)NC(=O)[C@@H](Cc2c[nH]c3ccccc23)NC(=O)CC2(CCCCC2)SSC[C@@H](C(=O)N2CCC[C@H]2C(=O)N[C@@H](CCCNC(=N)N)C(=O)NCC(N)=O)NC(=O)[C@H](CC(N)=O)NC1=O [Compound B, [Pmp^1,D-Trp^2,Phe^3,Ile^4,Arg^8] oxytocin] ([dW]FINCPRG-NH2; linker N-5 via X1) | 19.6 nM | 7.40 | – | – | – | – | – | –
[(S)Pmp^1,D-Trp^2,Pen^6,Arg^8 ] oxytocin [Compound D] | – | < 5.75 | 7856 | greater than 24 hours | 133 | 133 | about 130 | very low activity
